Test results from PMC5760531, “Action Potential Recording and Pro-arrhythmia Risk Analysis in Human Ventricular Trabeculae” (Frontiers in Physiology, 2018).

Test system: human ventricular trabeculae
Test: Action potential recording and pro-arrhythmic score analysis in human ventricular trabeculae (hVT);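 also: sharp microelectrode action potential recordings at 37°C in Tyrode-perfused trabeculae, 4 cumulative concentrations each applied 31 min, values averaged over last 30 APs, vehicle 0.1% DMSO as control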
Conditions: 1Hz; for Beat Escape (raw data) / EADs (raw data) / Refractoriness Escape (raw data): n=4 trabeculae
Method: Briefly, the human heart was transferred into a dissection vessel containing a cold (4°C), fresh proprietary dissection solution. The heart was maintained completely submerged in dissection solution. Ventricular trabeculae were dissected and transferred to the recording chamber.
Briefly, a single tissue was mounted into the experimental chamber filled with oxygenated Tyrode's external solution. The temperature of the solution was maintained at 37°C with flow rate at 5 mL per minute. The tissue was allowed to equilibrate for 30–60 min with stimulation (3 V, 3 ms) at a frequency of 1.0 Hz. High impedance borosilicate microelectrodes were prepared with a tip resistance of 10–20 MΩ once filled with 3 M KCl. Upon tissue impalement, the membrane potential was allowed to stabilize (typically, around −85 mV). Tissues with resting membrane potentials more positive than −75 mV were rejected. Bipolar stimulation at 1.5x threshold was applied and recordings were performed in continuous mode with sampling at 20 kHz using ADInstruments and LabChart Software.
Interruption of perfusion/oxygenation; (2). Absence of Aps following stimulation at baseline; (3). Time frame of drug exposure not respected; (4). Unstable response to stimulation at baseline; (5). Resting membrane potential (RMP) > −75 mV; 7). Maximal amplitude of AP (AMAX) <70 mV; 8). AP duration at 90% repolarization (APD90) <200 ms or >450 ms.
Experimental Procedure: Each test article was evaluated at 4 concentrations in 4 ventricular trabeculae derived from a minimum of 2 donor hearts. Testing concentrations were chosen based upon human free ETPC, aiming to cover 1–100-fold of human free ETPC. […] Briefly, following stabilization of each tissue, APs were collected and assessed for 31 min in vehicle control solution (Tyrode with 0.1% DMSO) at stimulation frequencies of 1 Hz for 25 min, 2 Hz for 3 min and then 1 Hz for 3 min. Following this vehicle control period, 4 concentrations of a test compound were applied sequentially and cumulatively. Each concentration was applied for 31 min with the same stimulation sequence as in vehicle controls.
For each frequency tested, the last 30 APs acquired at the end of the period were averaged for vehicle controls and for each test article concentration. Analysis at 1 Hz included only the last 30 APs of the initial 25-min incubation period. The following AP parameters and pro-arrhythmia variables were analyzed offline upon the completion of recordings:
• RMP (mV) • AMAX (mV) • AP duration at percent repolarization (APD20, APD30, APD50, APD60, APD90) (ms) • Short term variability analysis of AP duration (STV): Beat-to-beat variability of repolarization was quantified as STV from APD90 Poincare plots over a period of 30 sec.
Compound effects were quantified relative to the data collected during the vehicle control period (see Figure 1). […] Additionally, based on AnaBios historical data, threshold values for changes over baseline control for AP instability, APD alternans, Maximum APD dispersion and ERP (APD) were based upon an effect level of 10%. When applicable, differences were tested for statistical significance using the unpaired Student's t-test. A value of P < 0.05 was considered significant.
AP parameters and pro-arrhythmia variables were combined into a meaningful, single score to assess the pro-arrhythmic risk of a compound at each concentration tested. The pro-arrhythmic potential of compounds at 1 or 2 Hz was determined by assigning a weighted scale to each variable (Table 1).

## Nc1nnc(-c2cccc(Cl)c2Cl)c(N)n1 [LAMOTRIGINE, Lamotrigine]
0.6-FOLD free ETPC (17µM)
  AMAX (average raw data): 101
  AMAX percentage change compared to vehicle control: -5%
  APD30 (average raw data): 147
  APD30 percentage change compared to vehicle control: -2%
  APD50 (average raw data): 197
  APD50 percentage change compared to vehicle control: 0%
  APD90 (average raw data): 282
  APD90 percentage change compared to vehicle control: 1%
  Alternans (average raw data): 0.88
  Alternans percentage change compared to vehicle control: -35%
  Beat Escape percentage change compared to vehicle control: 0%
  EADs percentage change compared to vehicle control: 0%
  ERP (average raw data): 0.44
  ERP percentage change compared to vehicle control: 4%
  Max Dispersion (average raw data): 4.42
  Max Dispersion percentage change compared to vehicle control: -5%
  RMP (average raw data): -83
  RMP percentage change compared to vehicle control: -3%
  Refractoriness Escape percentage change compared to vehicle control: 0%
  STV (average raw data): 0.60
  STV percentage change compared to vehicle control: -26%
  Triangulation (average raw data): 136
  Triangulation percentage change compared to vehicle control: 3%
  Beat Escape (raw data): 0
  EADs (raw data): 0
  Refractoriness Escape (raw data): 0
6-FOLD free ETPC (17µM)
  AMAX (average raw data): 106
  AMAX percentage change compared to vehicle control: -1%
  APD30 (average raw data): 128
  APD30 percentage change compared to vehicle control: -15%
  APD50 (average raw data): 169
  APD50 percentage change compared to vehicle control: -14%
  APD90 (average raw data): 249
  APD90 percentage change compared to vehicle control: -11%
  Alternans (average raw data): 1.29
  Alternans percentage change compared to vehicle control: -5%
  Beat Escape percentage change compared to vehicle control: 0%
  EADs percentage change compared to vehicle control: 0%
  ERP (average raw data): 0.41
  ERP percentage change compared to vehicle control: -3%
  Max Dispersion (average raw data): 5.13
  Max Dispersion percentage change compared to vehicle control: 10%
  RMP (average raw data): -87
  RMP percentage change compared to vehicle control: 2%
  Refractoriness Escape percentage change compared to vehicle control: 0%
  STV (average raw data): 0.81
  STV percentage change compared to vehicle control: 302%
  Triangulation (average raw data): 121
  Triangulation percentage change compared to vehicle control: -8%
  Beat Escape (raw data): 0
  EADs (raw data): 0
  Refractoriness Escape (raw data): 0
18-FOLD free ETPC (17µM)
  AMAX (average raw data): 97
  AMAX percentage change compared to vehicle control: -9%
  APD30 (average raw data): 115
  APD30 percentage change compared to vehicle control: -23%
  APD50 (average raw data): 152
  APD50 percentage change compared to vehicle control: -23%
  APD90 (average raw data): 244
  APD90 percentage change compared to vehicle control: -13%
  Alternans (average raw data): 7.23
  Alternans percentage change compared to vehicle control: 435%
  Beat Escape percentage change compared to vehicle control: 25%
  EADs percentage change compared to vehicle control: 0%
  ERP (average raw data): 0.39
  ERP percentage change compared to vehicle control: -7%
  Max Dispersion (average raw data): 10.63
  Max Dispersion percentage change compared to vehicle control: 127%
  RMP (average raw data): -90
  RMP percentage change compared to vehicle control: 5%
  Refractoriness Escape percentage change compared to vehicle control: 0%
  STV (average raw data): 5.08
  STV percentage change compared to vehicle control: 477%
  Triangulation (average raw data): 130
  Triangulation percentage change compared to vehicle control: -2%
  Beat Escape (raw data): 1
  EADs (raw data): 0
  Refractoriness Escape (raw data): 0
59-FOLD free ETPC (17µM)
  AMAX (average raw data): 39
  AMAX percentage change compared to vehicle control: -63%
  APD30 (average raw data): 48
  APD30 percentage change compared to vehicle control: -69%
  APD50 (average raw data): 66
  APD50 percentage change compared to vehicle control: -67%
  APD90 (average raw data): 169
  APD90 percentage change compared to vehicle control: -38%
  Alternans (average raw data): 6.14
  Alternans percentage change compared to vehicle control: 354%
  Beat Escape percentage change compared to vehicle control: 100%
  EADs percentage change compared to vehicle control: 0%
  ERP (average raw data): 0.38
  ERP percentage change compared to vehicle control: -10%
  Max Dispersion (average raw data): 28.20
  Max Dispersion percentage change compared to vehicle control: 503%
  RMP (average raw data): -74
  RMP percentage change compared to vehicle control: -9%
  Refractoriness Escape percentage change compared to vehicle control: 0%
  STV (average raw data): 3.94
  STV percentage change compared to vehicle control: 2736%
  Triangulation (average raw data): 121
  Triangulation percentage change compared to vehicle control: 1%
  Beat Escape (raw data): 4
  EADs (raw data): 0
